Experimental data reported in patent publication US12246022B2, “Compositions and methods for treating, preventing or reversing age associated inflammation and disorders” (BROWN UNIVERSITY, priority 2019, dated 2025).
Several values for one entry are separate records, joined by “and”; a condition that tells them apart may be missing. Equal values may be shown once.

Legend:
[1] = tested on: L1, p16, IFN-I and SASP gene expression; assay: RT-qPCR of L1, p16, IFN-I and SASP genes in mouse tissues after drug in drinking water; type: in vivo; conditions: for IFNA Individual Foldchanges / IL6 Individual Foldchanges / IRF7 Individual Foldchanges / L1 Individual Foldchanges / MMP3 Individual Foldchanges / OAS1 Individual Foldchanges / PAI Individual Foldchanges / p16 Individual Foldchanges: one animal per line, listed as 3TC; for IFNA Age-group Foldchanges / IL6 Age-group Foldchanges / IRF7 Age-group Foldchanges / L1 Age-group Foldchanges / MMP3 Age-group Foldchanges / OAS1 Age-group Foldchanges / PAI Age-group Foldchanges / p16 Age-group Foldchanges: relative to 05 mo-WT
Method: C57BL/6J mice of both sexes were obtained from the NIA Aged Rodent Colonies^61 at 5 and 18 months of age. The 5-month old animals were sacrificed after a short (1 week) acclimatization period, a variety of tissues were harvested, snap frozen in LN2 and stored at −80° C. The 18-month old animals were housed until they reached a desired age. Mice were housed in a specific pathogen-free AAALAC-certified barrier facility. Cages, bedding (Sani-chip hardwood bedding) and food (Purina Lab Chow 5010) were sterilized by autoclaving. Food and water (also sterilized) were provided ad libitum. A light-dark cycle of 12 hours was used (7 AM On, 7 PM Off). Temperature was maintained at 70° F., and humidity at 50%. All animals were observed daily and weighed once per week. In a pilot experiment, three cohorts of 10 animals each were treated with 3TC dissolved in drinking water (1.5 mg/ml, 2.0 mg/ml, 2.5 mg/ml) continuously from 18 months until sacrifice at 24 months. The fourth (control) cohort was provided with the same water without drug. […] Once during the experiment (at 20 months of age) the animals were subjected to a single tail bleed of approximately 70 μL. […] They were then assigned randomly to two cohorts by a technician that was blinded to the appearance or other characteristics of the animals. One cohort was treated for 2 weeks with 2 mg/mL of 3TC in drinking water, and the other (control) cohort with same water without drug, administered in the same manner. At the end of the treatment period all animals were sacrificed and harvested for tissues as described above. All the animals in both cohorts were all included in all subsequent analyses. The experiment was performed on separate occasions with male and female animals.
Reverse transcription qPCR (RT-qPCR) of RNA was performed using the SYBR Green system (Applied Biosystems). Polyadenylated RNA was used in all experiments assessing transcription of L1 elements, and total RNA was used for all other genes. Total RNA was harvested using the Trizol reagent (Invitrogen). Poly(A) RNA was isolated from total RNA using the NEBNext Poly(A) mRNA Magnetic Isolation Module (New England Biolabs). 1 μg of total RNA, or 10 ng of poly(A) RNA, were reverse-transcribed into cDNA in 50 μL reactions using the TaqMan kit (Applied Biosystems). To assess strand-specific transcription, the random primers in the RT reaction were substituted with a strand-specific primer to the target RNA. 1 μL of each RT reaction was used in subsequent qPCR reactions. […] The arithmetic mean of Gapdh and two additional controls (Hsp90 and GusB) was used for normalization of RT-qPCR experiments with murine tissues, with the exception of liver that was normalized to Hsp90 and GusB. For measuring L1 transcription, poly(A) RNA samples were exhaustively digested with RNase-free DNase (Qiagen) prior to the synthesis of cDNA6. Effectiveness of the DNase digestion was assessed using controls that omitted the RT enzyme.

[2] = type: in vivo; conditions: mice, 1.5, 2.0, 2.5 mg/ml in drinking water from 18 to 24 months
Method: C57BL/6J mice of both sexes were obtained from the NIA Aged Rodent Colonies^61 at 5 and 18 months of age. The 5-month old animals were sacrificed after a short (1 week) acclimatization period, a variety of tissues were harvested, snap frozen in LN2 and stored at −80° C. The 18-month old animals were housed until they reached a desired age. Mice were housed in a specific pathogen-free AAALAC-certified barrier facility. Cages, bedding (Sani-chip hardwood bedding) and food (Purina Lab Chow 5010) were sterilized by autoclaving. Food and water (also sterilized) were provided ad libitum. A light-dark cycle of 12 hours was used (7 AM On, 7 PM Off). Temperature was maintained at 70° F., and humidity at 50%. All animals were observed daily and weighed once per week. In a pilot experiment, three cohorts of 10 animals each were treated with 3TC dissolved in drinking water (1.5 mg/ml, 2.0 mg/ml, 2.5 mg/ml) continuously from 18 months until sacrifice at 24 months. The fourth (control) cohort was provided with the same water without drug. […] Once during the experiment (at 20 months of age) the animals were subjected to a single tail bleed of approximately 70 μL. The collected plasma was shipped to the University of North Carolina CFAR Clinical Pharmacology and Analytical Chemistry Core for analysis of 3TC. For the 2 mg/mL cohort the concentration of 3TC in plasma averaged 7.2 μM. […]

## Nc1ccn([C@@H]2CS[C@H](CO)O2)c(=O)n1 [Lamivudine]
[1]; 05 mo mice + 3TC
  IFNA Individual Foldchanges: 1.821 and 2.748 and 2.909 and 0.645 and 0.465 and 0.346
  IL6 Individual Foldchanges: 1.455 and 0.924 and 5.604 and 1.622 and 1.920 and 0.751
  IRF7 Individual Foldchanges: 1.040 and 1.153 and 1.132 and 0.684 and 0.565 and 0.960
  L1 Individual Foldchanges: 1.458 and 1.464 and 0.484 and 1.829 and 2.537 and 0.747
  MMP3 Individual Foldchanges: 1.587 and 0.601 and 1.946 and 0.711 and 0.635 and 0.476
  OAS1 Individual Foldchanges: 2.867 and 1.521 and 6.031 and 1.317 and 0.037 and 1.603
  PAI Individual Foldchanges: 2.291 and 0.842 and 2.212 and 1.683 and 0.180 and 0.380
  p16 Individual Foldchanges: 2.881 and 0.457 and 0.957 and 0.270 and 0.104 and 0.541
  IFNA Age-group Foldchanges: 1.489
  IL6 Age-group Foldchanges: 2.046
  IRF7 Age-group Foldchanges: 0.922
  L1 Age-group Foldchanges: 1.420
  MMP3 Age-group Foldchanges: 0.993
  OAS1 Age-group Foldchanges: 2.229
  PAI Age-group Foldchanges: 1.265
  p16 Age-group Foldchanges: 0.868
[1]; 26 mo mice + 3TC
  IFNA Individual Foldchanges: 10.115 and 2.941 and 4.156 and 1.283 and 1.601 and 8.335 and 19.836 and 3.982 and 6.531 and 8.332 and 5.514 and 6.321
  IL6 Individual Foldchanges: 1.116 and 1.553 and 2.194 and 0.686 and 1.395 and 1.291 and 8.067 and 0.654 and 2.119 and 3.177 and 1.148 and 4.866
  IRF7 Individual Foldchanges: 0.540 and 0.506 and 0.498 and 0.424 and 0.954 and 3.302 and 0.993 and 1.155 and 0.950 and 1.866
  L1 Individual Foldchanges: 2.819 and 2.160 and 2.053 and 1.491 and 6.524 and 2.863 and 7.191 and 5.433 and 3.817 and 4.409 and 5.864 and 2.745
  MMP3 Individual Foldchanges: 1.044 and 0.972 and 1.618 and 1.650 and 1.033 and 1.166 and 4.484 and 0.374 and 1.543 and 3.656 and 1.964 and 1.637
  OAS1 Individual Foldchanges: 1.658 and 0.643 and 0.055 and 0.482 and 1.094 and 0.695 and 7.091 and 3.841 and 1.945 and 0.636 and 0.565 and 1.469
  PAI Individual Foldchanges: 1.034 and 1.056 and 2.696 and 0.493 and 1.562 and 1.675 and 2.347 and 0.529 and 0.747 and 8.508 and 6.112 and 7.313
  p16 Individual Foldchanges: 2.290 and 3.653 and 1.731 and 1.168 and 0.844 and 1.243 and 3.690 and 2.458 and 2.135 and 4.053 and 1.969 and 1.326
  IFNA Age-group Foldchanges: 6.579
  IL6 Age-group Foldchanges: 2.355
  IRF7 Age-group Foldchanges: 1.076
  L1 Age-group Foldchanges: 3.947
  MMP3 Age-group Foldchanges: 1.762
  OAS1 Age-group Foldchanges: 1.681
  PAI Age-group Foldchanges: 2.839
  p16 Age-group Foldchanges: 2.213
[2]
  behavior, weight, or survival versus control cohort: No significant differences in behavior, weight, or survival
